Test results reported in patent US9688689B2, “Compounds and compositions for inducing chondrogenesis” (Novartis AG, priority 2014, dated 2017).

Tested on: Primary articular chondrocytes from normal bovine knees
Assay: NO Release Assay in Bovine Chondrocytes (inhibition of cytokine induced NO release, Greiss reagent)
Type: cell-based
Conditions: Bos taurus, Chondrocyte; 20 ng/ml TNFα and 10 ng/ml human oncostatin M, 48 hours; read-out: NO Inh. IC50
Experimental: The compounds of the present invention were evaluated in two functional assays to assess their chondrogenesis activities (Type II Collagen Expression) and chondrocyte protective activities (NO release assay).
The assay was described in Johnson, K., et al., (2012) Science 336, 717-721. Chondrocytes release NO during OA pathogenesis. This assay measures the inhibition of nitric oxide release by the treated compound (an indicator of chondro-protection) Primary articular chondrocytes from normal bovine knees (Animal Technologies, Tyler, Tex.) were isolated after dissection and collagenase digestion (Worthington Biochemical) of the tibial plateau and femoral condyle articular cartilage. The cells were initially plated at 80-90% confluency after isolation. Primary chondrocytes were cultured in high-glucose Dulbecco's modified Eagle's medium (DMEM) supplemented with 10% fetal bovine serum (FBS), 1% L-glutamine, 100 units/ml of penicillin, and 50 μg/ml of streptomycin (Life Technologies, Carlsbad, Calif.) and maintained at 37° C. in the presence of 5% CO2 for 7 days prior to initiation of each experiment. During the 7-day culture period, the cells adhered and established a chondrocyte-like appearance that was maintained throughout the experimental period. Functional studies on chondrocytes were performed in high-glucose DMEM with no FBS unless indicated otherwise.
After one week of culture, 8500 cells were plated per well in Greiner 384 well white clear bottom plates in growth media. Following 24 hours of culture, the media was removed and replaced with serum free DMEM containing 20 ng/ml TNFα and 10 ng/ml human oncostatin M (inflammatory mediators). […] 20 μl of the supernatant was mixed with 20 μl of the Greiss reagent (Promega # G2930) and quantitated at 540 nm. The Greiss reagent part A (1% Sulfanilamide in 5% phosphoric acid) was mixed at a 1:1 ration with Greiss reagent part B (0.1% N-1-napthylethylenediamine dihydrochloride in water) immediately prior to added to the culture supernatant.

Structure (SMILES) | IC50 [µM]
O=C(Nc1ccc(Cl)c(Cl)c1)[C@@H]1[C@H](c2ccncc2)[C@@H]2CC[C@H]1O2 [Compound 135] | > 33
O=C(Nc1ccc(Cl)c(Cl)c1)C1=C(c2cccc(C(F)(F)F)n2)[C@@H]2CC[C@H]1O2 [Compound 136] | 0.14
Cn1nc(C(F)(F)F)cc1C1=C(C(=O)Nc2ccc(-c3ccccc3F)c(F)c2)C2CC[C@@H]1O2 [Compound 137] | 8.2
O=C(Nc1ccc(Cl)c(Cl)c1)[C@H]1C2CC[C@H](O2)[C@H]1c1cnccn1 [Compound 140] | > 33
Cn1nc(C(F)(F)F)cc1C1=C(C(=O)Nc2ccc(Cl)c(Cl)c2)[C@H]2CC[C@@H]1O2 [Compound 141] | 17
CCOC(=O)c1ccc(NC(=O)C2=C(c3cc(C(F)(F)F)nn3C)[C@@H]3CC[C@H]2O3)cc1 [Compound 142] | > 33
O=C(Nc1ccc(Cl)c(Cl)c1)C1=C(c2cnccn2)[C@@H]2CC[C@H]1O2 [Compound 144] | > 33
CCOC(=O)c1ccc(NC(=O)[C@H]2[C@H](c3ccc(OC)cn3)[C@@H]3CC[C@H]2O3)cc1 [Compound 151] | > 33
O=C(Nc1ccc(Cl)c(Cl)c1)[C@@H]1[C@H](c2cccc(C(F)(F)F)n2)[C@@H]2CC[C@H]1O2 [Compound 155, (1R,2R,3R,4S)—N-(3,4-dichlorophenyl)-3-(6-(trifluoromethyl)pyridin-2-yl)-7-oxabicyclo[2.2.1]heptane-2-carboxamide] | > 33
O=C(Nc1cccc(C(F)(F)F)c1F)C1=C(c2cccc(C(F)(F)F)n2)C2CCC1O2 (stereo not drawn) [Compound 157] | 25
O=C(Nc1ccc(-c2ccccc2)c(Cl)c1)C1=C(c2cccc(C(F)(F)F)n2)[C@@H]2CC[C@H]1O2 [Compound 160, (1R,4S)—N-(2-chloro-[1,1′-biphenyl]-4-yl)-3-(6-(trifluoromethyl)pyridin-2-yl)-7-oxabicyclo[2.2.1]hept-2-ene-2-carboxamide] | 5.4
O=C(Nc1ccc(Cl)c(Cl)c1)[C@H]1[C@H](c2ccncc2)[C@@H]2CC[C@H]1O2 [Compound 162] | > 33
O=C(Nc1ccc(-c2ccccc2F)c(F)c1)C1=C(c2cnccn2)[C@@H]2CC[C@H]1O2 [Compound 164] | > 33
Cc1ccnc([C@H]2[C@@H](C(=O)Nc3ccc(-c4ccccc4F)c(F)c3)[C@H]3CC[C@@H]2O3)c1 [Compound 166] | > 33
O=C(Nc1ccc(-c2ccccc2F)c(F)c1)C1=C(c2ccnc(N3CC[C@H](O)C3)c2)[C@@H]2CC[C@H]1O2 [Compound 167] | > 33
